Holding throughout (assay type): functional
Experiment [1] has as its system Staphylococcus epidermidis. The experiment can be described thus: Antibacterial activity against methicillin-sensitive Staphylococcus epidermidis ATCC 12228 assessed as growth inhibition after 18 hrs by agar dilution method. The note with it: ATCC 12228, 18 h. For orientation: Agar dilution tests growth on a series of plates holding different concentrations.
In experiment [2] the test system is Pseudomonas aeruginosa. Briefly: Antibacterial activity against beta-lactamase producing Pseudomonas aeruginosa ATCC 27853 assessed as growth inhibition after 18 hrs by agar dilution method. To be noted: ATCC 27853, 18 h.
The test system of experiment [3] is Staphylococcus epidermidis. The experiment can be described thus: Antibacterial activity against methicillin-sensitive Staphylococcus epidermidis 09-9 assessed as growth inhibition after 18 hrs by agar dilution method. To be noted: 09-9, 18 h.
The subject of experiment [4] is Enterococcus faecalis. Briefly: Antibacterial activity against vancomycin-resistant Enterococcus faecalis ATCC 51299 assessed as growth inhibition after 18 hrs by agar dilution method. The note with it: ATCC 51299, 18 h.
Experiment [5] has as its system Staphylococcus aureus. Briefly: Antibacterial activity against methicillin-sensitive Staphylococcus aureus 09-6 assessed as growth inhibition after 18 hrs by agar dilution method. The note with it: 09-6, 18 h.
For experiment [6], the system named is Enterococcus faecalis. The experiment can be described thus: Antibacterial activity against vancomycin-sensitive Enterococcus faecalis 09-8 assessed as growth inhibition after 18 hrs by agar dilution method. The note with it: 09-8, 18 h.
Experiment [7] relates to Staphylococcus aureus. Briefly: Antibacterial activity against methicillin-resistant Staphylococcus aureus 09-13 assessed as growth inhibition after 18 hrs by agar dilution method. To be noted: 09-13, 18 h.
For experiment [8], the system named is Staphylococcus aureus. The experiment can be described thus: Antibacterial activity against thiostrepton-resistant Staphylococcus aureus ATCC 6538P assessed as growth inhibition after 18 hrs by agar dilution method.
Experiment [9] concerns Escherichia coli. The experiment can be described thus: Antibacterial activity against beta-lactamase producing Escherichia coli 09-20 assessed as growth inhibition after 18 hrs by agar dilution method. The note with it: 09-20, 18 h.
Experiment [10] has as its system Enterococcus faecium. The experiment can be described thus: Antibacterial activity against vancomycin-resistant Enterococcus faecium ATCC 700221 assessed as growth inhibition after 18 hrs by agar dilution method. The note with it: ATCC 700221, 18 h.
In experiment [11] the test system is Staphylococcus aureus. Briefly: Antibacterial activity against methicillin-resistant Staphylococcus aureus R6101 assessed as growth inhibition after 18 hrs by agar dilution method. To be noted: R6101, 18 h.
The test system of experiment [12] is Staphylococcus epidermidis. Briefly: Antibacterial activity against methicillin-resistant Staphylococcus epidermidis 09-3 assessed as growth inhibition after 18 hrs by agar dilution method. To be noted: 09-3, 18 h.
Experiment [13] deals with Enterococcus faecalis. Briefly: Antibacterial activity against vancomycin-resistant Enterococcus faecalis W4138 assessed as growth inhibition after 18 hrs by agar dilution method. The note with it: W4138, 18 h.
In experiment [14] the test system is Enterococcus faecalis. Briefly: Antibacterial activity against vancomycin-resistant Enterococcus faecalis R6512 assessed as growth inhibition after 18 hrs by agar dilution method. To be noted: R6512, 18 h.
Experiment [15] deals with Enterococcus faecalis. Briefly: Antibacterial activity against vancomycin-sensitive Enterococcus faecalis ATCC 29212 assessed as growth inhibition after 18 hrs by agar dilution method. To be noted: ATCC 29212, 18 h.
Experiment [16] relates to Staphylococcus aureus. Briefly: Antibacterial activity against methicillin-resistant Staphylococcus aureus ATCC 33591 assessed as growth inhibition after 18 hrs by agar dilution method. To be noted: ATCC 33591, 18 h.
For experiment [17], the system named is Enterococcus faecium. The experiment can be described thus: Antibacterial activity against vancomycin-sensitive Enterococcus faecium 09-10 assessed as growth inhibition after 18 hrs by agar dilution method. To be noted: 09-10, 18 h.
Experiment [18] concerns Klebsiella pneumoniae. The experiment can be described thus: Antibacterial activity against extended spectrum beta-lactamase producing Klebsiella pneumoniae ATCC 700603 assessed as growth inhibition after 18 hrs by agar dilution method. To be noted: ATCC 700603, 18 h.
Experiment [19] relates to Klebsiella pneumoniae. The experiment can be described thus: Antibacterial activity against New Delhi metallo-beta-lactamase 1 producing Klebsiella pneumoniae ATCC BAA-2146 assessed as growth inhibition after 18 hrs by agar dilution method. To be noted: ATCC BAA-2146, 18 h.
For experiment [20], the system named is Escherichia coli. The experiment can be described thus: Antibacterial activity against extended spectrum beta-lactamase producing Escherichia coli 09-1 assessed as growth inhibition after 18 hrs by agar dilution method. The note with it: 09-1, 18 h.
Experiment [21] deals with Staphylococcus aureus. Briefly: Antibacterial activity against methicillin-sensitive Staphylococcus aureus ATCC 29213 assessed as growth inhibition after 18 hrs by agar dilution method. The note with it: ATCC 29213, 18 h.
Experiment [22] has as its system Micrococcus luteus. The experiment can be described thus: Antibacterial activity against apramycin-resistant Micrococcus luteus ATCC 10240 assessed as growth inhibition after 18 hrs by agar dilution method. The note with it: ATCC 10240, 18 h.
Experiment [23] deals with Morganella morganii. Briefly: Antibacterial activity against beta-lactamase producing Morganella morganii ATCC 25830 assessed as growth inhibition after 18 hrs by agar dilution method. To be noted: ATCC 25830, 18 h.

In brackets after ≈: the same amount, converted by molar mass.

As a reminder, the MIC is the lowest concentration found to suppress growth. `CC[C@@H]1[C@@H](C)O[C@@](OC)([C@@H](C)[C@H](O)[C@H](C)[C@H]2OC(=O)/C=C/C=C/[C@H](C)[C@@H]([C@@H](C)[C@@H](O)[C@H](C)[C@@]3(O)C[C@@H](O[C@H]4C[C@H](O)[C@H](O)[C@H](C)O4)[C@H](CC)[C@@H](C)O3)OC(=O)/C=C/C=C/[C@@H]2C)C[C@H]1O[C@H]1C[C@H](O)[C@H](O)[C@H](C)O1`: the MIC in experiment [1] was 2 µg/mL (≈ 1.92 µM); in [2], above 256 µg/mL; in experiment [3], 2 µg/mL (≈ 1.92 µM); in experiment [4], 1 µg/mL (≈ 0.962 µM); in experiment [5], 2 µg/mL (≈ 1.92 µM); in experiment [6] it was 2 µg/mL (≈ 1.92 µM). The MIC in [7] is 2 µg/mL (≈ 1.92 µM); in experiment [8] it was 2 µg/mL (≈ 1.92 µM); in [9], above 256 µg/mL; in experiment [10] it was 2 µg/mL (≈ 1.92 µM); in experiment [11], 1 µg/mL (≈ 0.962 µM); in [12], 2 µg/mL (≈ 1.92 µM). For the same molecule, the MIC in [13] was 2 µg/mL (≈ 1.92 µM); in experiment [14], 1 µg/mL (≈ 0.962 µM); in [15], 32 µg/mL (≈ 30.8 µM); in [16] it was 2 µg/mL (≈ 1.92 µM); in experiment [17], 2 µg/mL (≈ 1.92 µM); in [18], above 256 µg/mL. Also, the minimal inhibitory concentration (MIC) is above 256 µg/mL in [19]; above 256 µg/mL in [20]; 2 µg/mL (≈ 1.92 µM) in experiment [21]; 2 µg/mL (≈ 1.92 µM) in experiment [22]; above 256 µg/mL in [23].

As for `CN[C@H](CC(C)C)C(=O)N[C@H]1C(=O)N[C@@H](CC(N)=O)C(=O)N[C@H]2C(=O)N[C@H]3C(=O)N[C@H](C(=O)N[C@H](C(=O)O)c4cc(O)cc(O)c4-c4cc3ccc4O)[C@H](O)c3ccc(c(Cl)c3)Oc3cc2cc(c3O[C@@H]2O[C@H](CO)[C@@H](O)[C@H](O)[C@H]2O[C@H]2C[C@](C)(N)[C@H](O)[C@H](C)O2)Oc2ccc(cc2Cl)[C@H]1O` [VANCOMYCIN], the minimal inhibitory concentration (MIC) in [1] is 0.5 µg/mL (≈ 0.345 µM); in experiment [3] it was 0.5 µg/mL (≈ 0.345 µM); in experiment [4], 4 µg/mL (≈ 2.76 µM); in [6], 1 µg/mL (≈ 0.69 µM); in experiment [13], 4 µg/mL (≈ 2.76 µM); in experiment [14] it was above 256 µg/mL. In experiment [15], the minimum inhibitory concentration (MIC) is 1 µg/mL (≈ 0.69 µM).

For the origin of these results see ChEMBL document CHEMBL3085634, “Identification of elaiophylin derivatives from the marine-derived actinomycete Streptomyces sp. 7-145 using PCR-based screening” (2013).
